Values of other authors in PMC8258280 (Virologica Sinica, 2021).

Tested on: SARS-CoV 3CL^pro
Settings: read-out: IC50 against SARS-CoV 3CL^pro

**Q.** For `O=c1cc(-c2ccc(O)c(-c3c(O)cc(O)c4c(=O)cc(-c5ccc(O)cc5)oc34)c2)oc2cc(O)cc(O)c12` [amentoflavone], which IC50 is on record?
**A.** Its IC50 is 8.3 µM.
